Data set [1] relates to panel of cancer cell lines (Du-145, PC3, HepG2, Huh-7, HN6, U87 and U231). Description: Cytotoxicity screen on panel of cancer cell lines. Format: cell-based. The conditions noted are these: 72 h of treatment. The protocol:
(§1) For CellTiter 96® Aqueous One Solution Cell Proliferation Assay (MTS) (Promega, Madison, WI, USA), cells were seeded at 5 × 10^3 per well in 96-well plates in quadruplicate together a control with no cells to evaluate the background. After 24 h, the culture medium was removed, and fresh medium containing increasing concentrations of chemical compounds was added to cells. The fixed final concentrations were 0.1 μM, 1 μM, 10 μM, and 100 μM. DMSO was the vehicle used for dilution of the compounds, and its final concentration on cells was less than 0.2%. Medium-only containing wells were included as controls. […] After 3 h at 37 °C in a humidified, 5% CO2 atmosphere, the absorbance at 492 nm was recorded using an EZREAD400 (Biochrom, Cambridge, United Kingdom) plate reader. The average 490 nm absorbance from the “no cell” control wells was subtracted from all other values to yield background-corrected absorbance. Dose–response curves and CC50 values have been calculated by plotting the absorbance data as a function of inhibitor concentrations and fitting the data by least-squares nonlinear regression, according to the method of Marquardt–Levenberg, with the computer program GraphPad Prism 6.0.
(§2) Cells were incubated with a scalar concentration of DDX3X inhibitors, and after 72 h of treatment, cell viability was assessed by cytotoxicity assay. […]

A further data set relates to DU-145. Description: MTS cytotoxicity assay, DU-145 cells. Format: cell-based. The conditions noted are these: DU-145, 72 h. As for the experimental part: as §1, §2
(Tetrazolium assays rely on reduction of a dye to a coloured formazan, in cell work by metabolically active cells.)

A further data set has as its system HepG2. Description: MTS cytotoxicity assay, HepG2 cells. The conditions noted are these: HepG2, 72 h. Format: cell-based. The protocol:
as §1, §2

The test system of data set [2] is U87 cells intracerebral xenograft. Description: Orthotopic U87 xenograft model of GBM. Format: in vivo, CD1 nude mice. The conditions noted are these: 50 mg/kg i.p., three times per week for three weeks, observed two months. As for the experimental part: In CD1 nude mice, 3 × 10^3 U87 cells were injecting intracerebrally using a stereotactic frame (Stoelting Europe, Dublin, Ireland). Optimization of the protocol for treatment procedures was based on previously published data performed in the same experimental in vivo model. A volume of 3 μL was inoculated by a sterile Hamilton syringe with a 26-gauge needle inserted at a depth of 3.0 mm from the skull surface. Five days after injection, animals were randomized to control and treated groups. […] For in vivo administration, BA103 was administered i.p. in a saline solution containing 10% v/v DMSO and 10% v/v TWEEN 80. Each mouse received 50 mg/kg BA103, or vehicle, three times per week.
Figure 9 Biological activity of BA103 in xenograft models of GBM. (A–D) Mice were inoculated s.c. with U87 cells, randomly distributed in two groups (CTR and BA103), and treated according to the protocol shown in panel (A). Tumor growth was monitored by measuring tumor volume (B), and at the end point, tumors were weighed, and the resulting mean values for each group are reported in the histogram (C). Recovered tumor masses were processed for analysis of DDX3X expression by immunohistochemistry, and representative images acquired at 400× magnification are shown in panel (D). (E) Survival curve from in vivo orthotopic model of GBM. […] Mice were monitored for two months after U87 cells inoculation. […]

Data set [3] can be described thus: PK and biodistribution in BALB/c mice. Format: in vivo. The conditions noted are these: for half-life: 50 mg/kg. The protocol: Figure 8 PK and biodistribution of BA103 in BALB/c mice at the single dose of 50 mg/kg i.p. (A) Plasmatic distribution and PK parameters. Concentration levels ± SD of BA103 in (B) kidneys, (C) liver, and (D) brain. TEXT PRINTED IN THE PICTURE: (A) no label printed: t1/2 (min): 299.6; Cmax (μg/ml): 18.2; AUC 0-t (μg/ml*min): 1817.6; AUC 0-inf_obs (μg/ml*min): 1850.7; Vz/F_obs ((mg/kg)/(μg/ml)): 11.7; Cl/F_obs ((mg/kg)/(μg/ml)/min): 0.1 DOUBTS OF THE COPYIST ABOUT THIS PICTURE: Panel A table: the picture prints no substance label / Panel A table, Vz/F_obs and Cl/F_obs: the underscore may be hidden by the table line (could be 'Vz/F obs', 'Cl/F obs')
Thus, preliminary PK and biodistribution studies were performed on two groups of BALB/c mice (CTRL and BA103-treated) at the single intraperitoneal (i.p.) dose of 50 mg/kg. BA103 was slowly eliminated from plasma, with a half time (t1/2) of about 5 h. […] Even if the PK analysis was conducted in healthy mice, with an intact BBB, the data are of great importance, since the majority of drugs are unable to reach the tumor environment due to their low permeability.

Where [4] appears, read: BALB/c, mouse, ip, plasma, single dose 50 mg/kg i.p.

The results in this text go back to publication PMC8582824, “Targeting DDX3X Helicase Activity with BA103 Shows Promising Therapeutic Effects in Preclinical Glioblastoma Models” (Cancers, 2021).

Where two headings read alike, the source gives them in different places.

As for `CCCCc1nnc(-c2ccc(NC(=O)Nc3ccccc3C(F)(F)F)cc2)[nH]1` [Compound 4, 1-(4-(5-Butyl-4H-1,2,4-triazol-3-yl)phenyl)-3-(2-(trifluoromethyl)phenyl)urea], the “growth inhibition in all the cell lines tested” value in data set [1] is “showed inhibition growth capability in all the cell lines tested”.
As usually defined, the AUC(0-t) is exposure summed from dosing to a finite time, without extrapolation to infinity. The low end stands for less exposure, the high end for more exposure. As usually defined, the Cmax is the highest concentration seen after dosing. The term CL/F denotes clearance divided by bioavailability, as obtained after extravascular dosing. For `CCCCc1cn(-c2ccc(NC(=O)Nc3ccccc3C(F)(F)F)cc2)nn1` [BA103, 1-(4-(4-Butyl-1H-1,2,3-triazol-1-yl)phenyl)-3-(2-(trifluoromethyl)phenyl)urea], the “CC50” value with DU-145 and in the data set on HepG2 was “low micromolar range” throughout. Also, in data set [2], the “mice alive at the endpoint” value is “seven out of eight”. The AUC(0-t) in data set [3] (setting [4]) is 30300 ng·h/mL. For the same compound, the peak level in data set [3] (setting [4]) (Cmax) was 18200 ng/mL. For the same compound, the AUC(0-inf) in data set [3] (BALB/c, mouse, ip, plasma, single dose 50 mg/kg i.p., read-out: AUC 0-inf_obs (converted)) is 30800 ng·h/mL. Also, the half-life in data set [3] (BALB/c, mouse, plasma, ip, plasma, single dose 50 mg/kg i.p., read-out: t1/2) is 4.99 h; in data set [3] (BALB/c, mouse, plasma, ip, single dose 50 mg/kg i.p., read-out: half time (t1/2) of elimination from plasma (converted)) it was about 5 h. The compound also had an apparent clearance CL/F in data set [3] (BALB/c, mouse, plasma, ip, single dose 50 mg/kg i.p.) of 100 mL/min/kg. Moreover, the Vd/F in data set [3] (BALB/c, mouse, plasma, ip, single dose 50 mg/kg i.p., read-out: Vz/F_obs) came out at 11.7 L/kg. Besides, the “brain distribution / blood–brain barrier crossing” value in data set [3] (healthy mice, 50 mg/kg i.p.) is on record as “ability to cross the blood–brain barrier”.
